# Measurements: patent US20170172955A1, “Treatment of Mixed Dyslipidemia” (priority 2015, published 2017)
# Where two headings read alike, the source gives them in different places.
# How the values were obtained:
# [1] = tested on: STAM model of non-alcoholic steatohepatitis (NASH); details: for Sirius Red positive area (mean ± SD) / NAFLD Activity score, NAS (mean ± SD) / Fasting blood glucose (mean ± SD) / Plasma insulin (mean ± SD) / Liver hydroxyl-proline (mean ± SD) / Liver triglyceride (mean ± SD) / Non-fasting blood glucose (mean ± SD) / Plasma ALT (mean ± SD) / Plasma AST (mean ± SD) / Plasma ketone body (mean ± SD): STAM mice; for Fasting blood glucose (mean ± SD) / Plasma insulin (mean ± SD): Day 18, 8 hours of fasting; for Liver hydroxyl-proline (mean ± SD) / Liver triglyceride (mean ± SD) / Non-fasting blood glucose (mean ± SD) / Plasma ALT (mean ± SD) / Plasma AST (mean ± SD) / Plasma ketone body (mean ± SD): termination (Day 21)
# Description: Telmisartan (Micardis®) was purchased from Boehringer Ingelheim GmbH (Germany) and dissolved in pure water.
# Telmisartan was administered at a dose of 10 mg/kg once daily.
# Measurement of whole blood and plasma biochemistry: Eight-hour fasting blood samples were collected from facial vein at 3 days prior to termination.
# Eight-hour fasting blood glucose was measured in whole blood using Life Check (EIDIA Co. Ltd., Japan). For plasma biochemistry, eight-hour fasting blood was collected in polypropylene tubes with anticoagulant (Novo-Heparin, Mochida Pharmaceutical, Japan) and centrifuged at 1,000×g for 15 minutes at 4° C. The supernatant was collected and stored at −80° C. until use. Plasma insulin levels were quantified by Ultra Sensitive Mouse Insulin ELISA kit (Morinaga Institute of Biological Science, Inc., Japan).
# On the day of termination, non-fasting blood glucose was measured in whole blood using Life Check. For plasma biochemistry, non-fasting blood was collected in polypropylene tubes with anticoagulant (Novo-Heparin) and centrifuged at 1,000×g for 15 minutes at 4° C. The supernatant was collected and stored at −80° C. until use. Plasma ALT, AST, ALP, GGT, BUN, creatinine and total bilirubin levels were measured by FUJI DRI-CHEM 7000 (Fujifilm Corporation, Japan). Plasma ketone body levels were quantified by EnzyChrom™ Ketone Body Assay Kit (BioAssay Systems, USA). […]
# Histological analyses: For HE staining, sections were cut from paraffin blocks of liver tissue prefixed in Bouin's solution and stained with Lillie-Mayer's Hematoxylin (Muto Pure Chemicals Co., Ltd., Japan) and eosin solution (Wako Pure Chemical Industries). […] To visualize collagen deposition, Bouin's fixed liver sections were stained using picro-Sirius red solution (Waldeck, Germany). […]
# Statistical analyses were performed using Bonferroni Multiple Comparison Test on GraphPad Prism 6 (GraphPad Software Inc., USA). […] Results were expressed as mean±SD.
# The viability, clinical signs and behavior were monitored daily. Body weight was recorded before the treatment. […] The animals were sacrificed by exsanguination through direct cardiac puncture under isoflurane anesthesia (Pfizer Inc.) at 9 weeks of age.
# CYP2C9 = CYP2C9 (Homo sapiens, UniProt P11712); assay: biochemical
# Description: (§1) Human livers, HLM141, HLM143, and HLM144 were selected from the University of Washington Human Liver Bank for this study. […] The actual concentrations used for each of the other probes are specified below. […] The seven isoforms and the metabolic pathway of each of the probes used to monitor specific isoform activity are listed below.
# CYP2C9: The 7-hydroxylation of (S)-warfarin (4 μM). The reaction is monitored by quantitative GC/MS using 7-hydroxywarfarin-(d5-phenyl) as the internal standard.
# CYP2C19 = CYP2C19 (Homo sapiens, UniProt P33261); assay: biochemical
# Description: as §1
# CYP2C19: The 4′-hydroxylation of (S)-mephenytoin (50 μM). The reaction is monitored by quantitative GC/MS using mephenytoin-(d3-methyl) as the internal standard.
# [2] = gemcabene 30 mg/kg PO QD, n = 8
# [3] = gemcabene 100 mg/kg PO QD, n = 8
# [4] = gemcabene 300 mg/kg PO QD, n = 8
# CYP2C19, sequence (P33261 whole entry): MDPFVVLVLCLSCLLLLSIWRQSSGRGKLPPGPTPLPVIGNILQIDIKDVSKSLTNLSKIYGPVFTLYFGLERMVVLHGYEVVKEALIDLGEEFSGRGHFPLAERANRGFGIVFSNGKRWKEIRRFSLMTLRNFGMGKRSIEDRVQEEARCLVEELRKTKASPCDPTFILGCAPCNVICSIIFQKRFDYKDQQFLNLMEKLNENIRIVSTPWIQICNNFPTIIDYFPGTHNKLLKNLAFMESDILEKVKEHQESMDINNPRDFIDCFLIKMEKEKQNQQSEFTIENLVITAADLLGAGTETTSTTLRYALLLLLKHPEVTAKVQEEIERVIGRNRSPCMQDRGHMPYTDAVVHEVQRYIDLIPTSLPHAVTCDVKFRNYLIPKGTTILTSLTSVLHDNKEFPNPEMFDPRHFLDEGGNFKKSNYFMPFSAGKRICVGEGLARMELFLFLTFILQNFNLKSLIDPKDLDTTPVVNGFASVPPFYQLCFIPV
# CYP2C9, sequence (P11712 whole entry, canonical isoform): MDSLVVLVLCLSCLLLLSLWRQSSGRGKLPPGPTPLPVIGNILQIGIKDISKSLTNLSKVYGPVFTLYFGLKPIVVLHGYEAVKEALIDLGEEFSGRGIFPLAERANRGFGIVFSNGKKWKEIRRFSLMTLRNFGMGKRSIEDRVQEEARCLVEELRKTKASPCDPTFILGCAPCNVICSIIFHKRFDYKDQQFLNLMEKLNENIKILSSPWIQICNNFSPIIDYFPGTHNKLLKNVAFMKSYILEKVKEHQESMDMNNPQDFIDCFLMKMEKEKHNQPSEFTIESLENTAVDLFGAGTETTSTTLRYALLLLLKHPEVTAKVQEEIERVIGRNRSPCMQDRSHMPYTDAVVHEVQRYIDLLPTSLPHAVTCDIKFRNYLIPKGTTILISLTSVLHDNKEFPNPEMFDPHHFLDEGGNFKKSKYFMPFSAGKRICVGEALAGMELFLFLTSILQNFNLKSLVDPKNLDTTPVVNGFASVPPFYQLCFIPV
structure (smiles),measurement,setting,value
"CC(C)(CCCCOCCCCC(C)(C)C(=O)O)C(=O)O [Gemcabene, 6,6′-oxybis(2,2-dimethylhexanoic acid)]",Sirius Red positive area (mean ± SD),[1]; gemcabene 30 mg/kg PO QD 6-9 wks,0.56 ± 0.18%
same,"NAFLD Activity score, NAS (mean ± SD)","[1]; gemcabene 30 mg/kg PO QD 6-9 wks, n = 8",3.4 ± 1.1
same,Fasting blood glucose (mean ± SD),[1]; gemcabene 30 mg/kg PO QD,437 ± 42 mg/dL
same,Plasma insulin (mean ± SD),[1]; gemcabene 30 mg/kg PO QD,0.13 ± 0.04 ng/mL
same,Liver hydroxyl-proline (mean ± SD),[1]; gemcabene 30 mg/kg PO QD,0.66 ± 0.12 μg/mg total protein
same,Liver triglyceride (mean ± SD),[1]; gemcabene 30 mg/kg PO QD,49.2 ± 8.6 mg/g liver
same,Non-fasting blood glucose (mean ± SD),[1]; gemcabene 30 mg/kg PO QD,607 ± 48 mg/dL
same,Plasma ALT (mean ± SD),[1]; gemcabene 30 mg/kg PO QD,41 ± 15 U/L
same,Plasma AST (mean ± SD),[1]; gemcabene 30 mg/kg PO QD,100 ± 44 U/L
same,Plasma ketone body (mean ± SD),[1]; gemcabene 30 mg/kg PO QD,9.43 ± 2.35 mM
same,Sirius Red positive area (mean ± SD),[1]; gemcabene 100 mg/kg PO QD 6-9 wks,0.53 ± 0.18%
same,"NAFLD Activity score, NAS (mean ± SD)","[1]; gemcabene 100 mg/kg PO QD 6-9 wks, n = 8",3.6 ± 1.4
same,Fasting blood glucose (mean ± SD),[1]; gemcabene 100 mg/kg PO QD,441 ± 46 mg/dL
same,Plasma insulin (mean ± SD),[1]; gemcabene 100 mg/kg PO QD,0.17 ± 0.06 ng/mL
same,Liver hydroxyl-proline (mean ± SD),[1]; gemcabene 100 mg/kg PO QD,0.74 ± 0.38 μg/mg total protein
same,Liver triglyceride (mean ± SD),[1]; gemcabene 100 mg/kg PO QD,58.4 ± 14.5 mg/g liver
same,Non-fasting blood glucose (mean ± SD),[1]; gemcabene 100 mg/kg PO QD,653 ± 53 mg/dL
same,Plasma ALT (mean ± SD),[1]; gemcabene 100 mg/kg PO QD,27 ± 7 U/L
same,Plasma AST (mean ± SD),[1]; gemcabene 100 mg/kg PO QD,88 ± 32 U/L
same,Plasma ketone body (mean ± SD),[1]; gemcabene 100 mg/kg PO QD,5.75 ± 3.24 mM
same,Sirius Red positive area (mean ± SD),[1]; gemcabene 300 mg/kg PO QD 6-9 wks,0.59 ± 0.16%
same,"NAFLD Activity score, NAS (mean ± SD)","[1]; gemcabene 300 mg/kg PO QD 6-9 wks, n = 8",2.5 ± 0.8
same,Fasting blood glucose (mean ± SD),[1]; gemcabene 300 mg/kg PO QD,407 ± 15 mg/dL
same,Plasma insulin (mean ± SD),[1]; gemcabene 300 mg/kg PO QD,0.13 ± 0.04 ng/mL
same,Liver hydroxyl-proline (mean ± SD),[1]; gemcabene 300 mg/kg PO QD,0.70 ± 0.10 μg/mg total protein
same,Liver triglyceride (mean ± SD),[1]; gemcabene 300 mg/kg PO QD,56.0 ± 13.9 mg/g liver
same,Non-fasting blood glucose (mean ± SD),[1]; gemcabene 300 mg/kg PO QD,638 ± 63 mg/dL
same,Plasma ALT (mean ± SD),[1]; gemcabene 300 mg/kg PO QD,32 ± 14 U/L
same,Plasma AST (mean ± SD),[1]; gemcabene 300 mg/kg PO QD,147 ± 122 U/L
same,Plasma ketone body (mean ± SD),[1]; gemcabene 300 mg/kg PO QD,5.68 ± 3.08 mM
same,number of mice with Hepatocyte ballooning score 0 (None),[1]; [2],4
same,number of mice with Hepatocyte ballooning score 1 (Few balloon cells),[1]; [2],2
same,number of mice with Hepatocyte ballooning score 2 (Many cells/prominent ballooning),[1]; [2],2
same,number of mice with Lobular inflammation score 0 (No foci),[1]; [2],1
same,number of mice with Lobular inflammation score 1 (<2 foci/200x),[1]; [2],2
same,number of mice with Lobular inflammation score 2 (2-4 foci/200x),[1]; [2],4
same,number of mice with Lobular inflammation score 3 (>4 foci/200x),[1]; [2],1
same,number of mice with Steatosis score 1 (5-33%),[1]; [2],8
same,number of mice with Hepatocyte ballooning score 0 (None),[1]; [3],1
same,number of mice with Hepatocyte ballooning score 1 (Few balloon cells),[1]; [3],4
same,number of mice with Hepatocyte ballooning score 2 (Many cells/prominent ballooning),[1]; [3],3
same,number of mice with Lobular inflammation score 0 (No foci),[1]; [3],2
same,number of mice with Lobular inflammation score 1 (<2 foci/200x),[1]; [3],1
same,number of mice with Lobular inflammation score 2 (2-4 foci/200x),[1]; [3],5
same,number of mice with Steatosis score 1 (5-33%),[1]; [3],8
same,number of mice with Hepatocyte ballooning score 0 (None),[1]; [4],4
same,number of mice with Hepatocyte ballooning score 1 (Few balloon cells),[1]; [4],3
same,number of mice with Hepatocyte ballooning score 2 (Many cells/prominent ballooning),[1]; [4],1
same,number of mice with Lobular inflammation score 0 (No foci),[1]; [4],2
same,number of mice with Lobular inflammation score 1 (<2 foci/200x),[1]; [4],2
same,number of mice with Lobular inflammation score 2 (2-4 foci/200x),[1]; [4],4
same,number of mice with Steatosis score 0 (<5%),[1]; [4],3
same,number of mice with Steatosis score 1 (5-33%),[1]; [4],5
same,IC50,CYP2C9,> 1500 µM
same,IC50,"CYP2C9; human, microsomes",> 1500 µM
same,IC50,CYP2C19,> 1500 µM
same,IC50,"CYP2C19; human, microsomes",> 1500 µM
